Test results from US20260070903A1, “NOVEL PYRIDO[3,4-D]PYRIMIDIN-8-ONE DERIVATIVE HAVING PROTEIN KINASE INHIBITORY ACTIVITY, AND PHARMACEUTICAL COMPOSITION FOR PREVENTING, ALLEVIATING, OR TREATING CANCER, COMPRISING SAME” (KOREA INSTITUTE OF SCIENCE AND TECHNOLOGY, priority 2019, published 2026).

What was measured:
FGFR1 = FGFR1 (Homo sapiens, UniProt P11362); test: Kinase panel biochemical assay, FGFR1; settings: single concentration of 1 μM, read-out: percent inhibition of kinase
Method: (§1) As a test compound, Compound No. 55 was used. The percent inhibition of each kinase when treated with the test compound at a single concentration of 1 μM was measured, and the residual enzyme activity values (%) of the kinases were calculated. Kinases whose calculated residual enzyme activity values (%) was 30% or less (i.e., kinases inhibited by 70% or more) are as follows: […]

JAK1 = JAK1 (Homo sapiens, UniProt P23458); test: Kinase panel biochemical assay, JAK1; settings: single concentration of 1 μM, read-out: percent inhibition of kinase
Sequence of JAK1 (P23458 whole entry): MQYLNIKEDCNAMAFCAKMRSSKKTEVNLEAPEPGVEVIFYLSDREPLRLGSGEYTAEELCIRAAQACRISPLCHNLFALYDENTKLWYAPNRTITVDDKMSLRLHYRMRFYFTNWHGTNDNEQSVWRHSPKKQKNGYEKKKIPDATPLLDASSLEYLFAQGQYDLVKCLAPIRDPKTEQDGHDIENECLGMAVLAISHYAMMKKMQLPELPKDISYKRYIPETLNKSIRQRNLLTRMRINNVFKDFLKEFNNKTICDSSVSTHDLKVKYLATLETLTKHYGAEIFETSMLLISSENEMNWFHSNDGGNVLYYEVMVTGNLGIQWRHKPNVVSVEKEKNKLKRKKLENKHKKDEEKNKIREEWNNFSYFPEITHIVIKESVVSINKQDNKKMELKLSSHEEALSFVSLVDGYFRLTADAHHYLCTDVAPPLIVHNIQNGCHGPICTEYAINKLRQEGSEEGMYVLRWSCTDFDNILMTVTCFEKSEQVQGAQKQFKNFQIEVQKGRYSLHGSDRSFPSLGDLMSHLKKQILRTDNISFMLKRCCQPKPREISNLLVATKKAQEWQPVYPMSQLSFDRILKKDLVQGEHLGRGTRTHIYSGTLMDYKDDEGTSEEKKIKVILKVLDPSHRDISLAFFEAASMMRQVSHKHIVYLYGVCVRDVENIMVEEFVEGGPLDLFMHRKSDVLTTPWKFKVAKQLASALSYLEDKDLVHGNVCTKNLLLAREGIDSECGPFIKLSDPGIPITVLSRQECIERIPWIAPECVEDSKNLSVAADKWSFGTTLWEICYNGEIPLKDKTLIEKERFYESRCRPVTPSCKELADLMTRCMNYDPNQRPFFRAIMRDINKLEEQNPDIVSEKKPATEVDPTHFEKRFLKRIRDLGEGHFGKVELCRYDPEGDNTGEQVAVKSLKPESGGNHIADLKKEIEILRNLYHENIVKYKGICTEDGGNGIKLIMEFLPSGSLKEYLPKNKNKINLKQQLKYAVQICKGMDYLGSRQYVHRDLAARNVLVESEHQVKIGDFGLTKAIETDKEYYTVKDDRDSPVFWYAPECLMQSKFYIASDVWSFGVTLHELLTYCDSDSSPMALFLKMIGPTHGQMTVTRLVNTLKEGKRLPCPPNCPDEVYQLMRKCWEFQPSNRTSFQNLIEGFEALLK
Method: as §1

Ba/F3 (N-Ras G12D) = test: Proliferation inhibitory activity, Ba/F3 N-Ras G12D; type: cell-based; settings: Mus musculus, BaF3
Method: (§2) The inhibitory activities of the compounds of the present disclosure against the proliferation of the mt-NRAS (G12D) Ba/F3 and OCI-AML3 (mt-NRAS) cell lines were measured and the GI50 values thereof were calculated.

ZAK = ZAK (Homo sapiens, UniProt Q9NYL2); test: Kinase panel biochemical assay, ZAK; settings: single concentration of 1 μM, read-out: percent inhibition of kinase
Sequence of ZAK (Q9NYL2 whole entry): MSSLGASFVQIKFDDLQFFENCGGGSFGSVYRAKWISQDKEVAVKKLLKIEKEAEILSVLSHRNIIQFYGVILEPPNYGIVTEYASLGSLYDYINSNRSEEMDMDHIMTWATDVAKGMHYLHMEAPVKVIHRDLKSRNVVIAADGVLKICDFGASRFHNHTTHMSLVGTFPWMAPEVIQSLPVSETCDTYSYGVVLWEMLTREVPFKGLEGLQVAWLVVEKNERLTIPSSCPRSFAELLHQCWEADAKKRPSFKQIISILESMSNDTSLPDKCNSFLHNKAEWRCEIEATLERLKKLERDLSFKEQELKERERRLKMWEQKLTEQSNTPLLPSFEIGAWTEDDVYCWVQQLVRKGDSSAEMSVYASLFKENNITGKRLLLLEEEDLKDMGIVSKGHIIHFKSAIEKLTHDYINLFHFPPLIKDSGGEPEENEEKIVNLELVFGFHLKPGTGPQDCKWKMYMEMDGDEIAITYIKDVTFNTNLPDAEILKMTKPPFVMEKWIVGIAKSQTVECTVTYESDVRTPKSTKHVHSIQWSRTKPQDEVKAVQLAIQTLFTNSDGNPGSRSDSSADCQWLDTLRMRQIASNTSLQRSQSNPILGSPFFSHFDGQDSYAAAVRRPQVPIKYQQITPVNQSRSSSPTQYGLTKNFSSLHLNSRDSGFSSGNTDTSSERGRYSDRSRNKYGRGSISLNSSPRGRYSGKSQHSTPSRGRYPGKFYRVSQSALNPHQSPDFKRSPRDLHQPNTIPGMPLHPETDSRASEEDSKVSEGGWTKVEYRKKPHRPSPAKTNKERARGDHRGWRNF
Method: as §1

EPHB3 = EPHB3 (Homo sapiens, UniProt P54753); test: Kinase panel biochemical assay, EPHB3; settings: single concentration of 1 μM, read-out: percent inhibition of kinase
Method: as §1

TXK = TXK (Homo sapiens, UniProt P42681); test: Kinase panel biochemical assay, TXK; settings: single concentration of 1 μM, read-out: percent inhibition of kinase
Method: as §1

ACK1 [1] = molecular target: T1, ACK1 (Homo sapiens, UniProt Q07912); test: Inhibitory activity against ACK1 kinase (IC50); type: biochemical
T1 sequence (Q07912 whole entry): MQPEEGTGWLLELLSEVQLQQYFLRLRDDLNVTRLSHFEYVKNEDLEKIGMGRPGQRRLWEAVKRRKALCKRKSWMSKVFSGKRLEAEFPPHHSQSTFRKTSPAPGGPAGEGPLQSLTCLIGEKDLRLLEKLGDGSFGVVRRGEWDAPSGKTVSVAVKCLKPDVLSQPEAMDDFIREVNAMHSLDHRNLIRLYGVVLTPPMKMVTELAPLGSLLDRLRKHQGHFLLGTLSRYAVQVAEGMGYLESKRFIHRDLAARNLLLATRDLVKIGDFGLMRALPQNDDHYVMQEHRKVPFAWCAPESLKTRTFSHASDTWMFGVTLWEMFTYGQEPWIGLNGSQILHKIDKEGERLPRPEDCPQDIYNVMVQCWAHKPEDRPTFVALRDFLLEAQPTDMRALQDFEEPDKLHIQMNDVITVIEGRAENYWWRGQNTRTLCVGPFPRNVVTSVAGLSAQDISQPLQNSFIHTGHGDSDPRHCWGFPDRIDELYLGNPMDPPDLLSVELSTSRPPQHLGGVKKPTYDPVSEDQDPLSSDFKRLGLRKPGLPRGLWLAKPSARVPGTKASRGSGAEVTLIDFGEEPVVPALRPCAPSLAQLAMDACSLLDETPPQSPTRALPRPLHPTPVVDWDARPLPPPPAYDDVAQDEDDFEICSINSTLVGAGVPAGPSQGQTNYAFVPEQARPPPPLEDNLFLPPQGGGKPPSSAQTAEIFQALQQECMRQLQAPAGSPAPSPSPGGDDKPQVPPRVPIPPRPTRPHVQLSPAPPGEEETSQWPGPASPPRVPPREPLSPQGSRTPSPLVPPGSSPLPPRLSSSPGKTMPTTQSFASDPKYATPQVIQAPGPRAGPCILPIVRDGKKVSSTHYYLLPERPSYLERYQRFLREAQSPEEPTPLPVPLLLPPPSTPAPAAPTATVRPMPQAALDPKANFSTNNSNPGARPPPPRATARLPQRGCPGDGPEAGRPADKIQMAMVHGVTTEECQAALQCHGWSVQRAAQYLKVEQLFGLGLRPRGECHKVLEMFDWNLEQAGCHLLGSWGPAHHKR
Method: The inhibitory activities of the compounds of the present disclosure against two kinases, GCK and ACK1, were measured, and the IC50 values thereof were calculated.

FLT1 = FLT1 (Homo sapiens, UniProt P17948); test: Kinase panel biochemical assay, FLT1; settings: single concentration of 1 μM, read-out: percent inhibition of kinase
Method: as §1

EPHB1 = EPHB1 (Homo sapiens, UniProt P54762); test: Kinase panel biochemical assay, EPHB1; settings: single concentration of 1 μM, read-out: percent inhibition of kinase
Method: as §1

FRK = FRK (Homo sapiens, UniProt P42685); test: Kinase panel biochemical assay, FRK; settings: single concentration of 1 μM, read-out: percent inhibition of kinase
Method: as §1

p38a = p38a (Homo sapiens, UniProt Q16539); test: Kinase panel biochemical assay, p38a; settings: single concentration of 1 μM, read-out: percent inhibition of kinase
Method: as §1

FGFR2 = FGFR2 (Homo sapiens, UniProt P21802); test: Kinase panel biochemical assay, FGFR2; settings: single concentration of 1 μM, read-out: percent inhibition of kinase
Method: as §1

RET = RET (Homo sapiens, UniProt P07949); test: Kinase panel biochemical assay, RET; settings: single concentration of 1 μM, read-out: percent inhibition of kinase
Method: as §1

EPHA1 = EPHA1 (Homo sapiens, UniProt P21709); test: Kinase panel biochemical assay, EPHA1; settings: single concentration of 1 μM, read-out: percent inhibition of kinase
Method: as §1

OCI-AML3 (N-Ras Q61L) = test: Proliferation inhibitory activity, OCI-AML3; type: cell-based, human; settings: Homo sapiens, OCI-AML-3
Method: as §2

RIPK3 = RIPK3 (Homo sapiens, UniProt Q9Y572); test: Kinase panel biochemical assay, RIPK3; settings: single concentration of 1 μM, read-out: percent inhibition of kinase
Method: as §1

EPHB4 = EPHB4 (Homo sapiens, UniProt P54760); test: Kinase panel biochemical assay, EPHB4; settings: single concentration of 1 μM, read-out: percent inhibition of kinase
Method: as §1

EPHA2 = EPHA2 (Homo sapiens, UniProt P29317); test: Kinase panel biochemical assay, EPHA2; settings: single concentration of 1 μM, read-out: percent inhibition of kinase
Method: as §1

EPHA7 = EPHA7 (Homo sapiens, UniProt Q15375); test: Kinase panel biochemical assay, EPHA7; settings: single concentration of 1 μM, read-out: percent inhibition of kinase
Method: as §1

ACK1 [2] = molecular target: T1, ACK1; test: Kinase panel biochemical assay, ACK1; settings: single concentration of 1 μM, read-out: percent inhibition of kinase
Method: as §1

YSK4 = YSK4 (Homo sapiens, UniProt Q56UN5); test: Kinase panel biochemical assay, YSK4; settings: single concentration of 1 μM, read-out: percent inhibition of kinase
Sequence of YSK4 (Q56UN5 whole entry): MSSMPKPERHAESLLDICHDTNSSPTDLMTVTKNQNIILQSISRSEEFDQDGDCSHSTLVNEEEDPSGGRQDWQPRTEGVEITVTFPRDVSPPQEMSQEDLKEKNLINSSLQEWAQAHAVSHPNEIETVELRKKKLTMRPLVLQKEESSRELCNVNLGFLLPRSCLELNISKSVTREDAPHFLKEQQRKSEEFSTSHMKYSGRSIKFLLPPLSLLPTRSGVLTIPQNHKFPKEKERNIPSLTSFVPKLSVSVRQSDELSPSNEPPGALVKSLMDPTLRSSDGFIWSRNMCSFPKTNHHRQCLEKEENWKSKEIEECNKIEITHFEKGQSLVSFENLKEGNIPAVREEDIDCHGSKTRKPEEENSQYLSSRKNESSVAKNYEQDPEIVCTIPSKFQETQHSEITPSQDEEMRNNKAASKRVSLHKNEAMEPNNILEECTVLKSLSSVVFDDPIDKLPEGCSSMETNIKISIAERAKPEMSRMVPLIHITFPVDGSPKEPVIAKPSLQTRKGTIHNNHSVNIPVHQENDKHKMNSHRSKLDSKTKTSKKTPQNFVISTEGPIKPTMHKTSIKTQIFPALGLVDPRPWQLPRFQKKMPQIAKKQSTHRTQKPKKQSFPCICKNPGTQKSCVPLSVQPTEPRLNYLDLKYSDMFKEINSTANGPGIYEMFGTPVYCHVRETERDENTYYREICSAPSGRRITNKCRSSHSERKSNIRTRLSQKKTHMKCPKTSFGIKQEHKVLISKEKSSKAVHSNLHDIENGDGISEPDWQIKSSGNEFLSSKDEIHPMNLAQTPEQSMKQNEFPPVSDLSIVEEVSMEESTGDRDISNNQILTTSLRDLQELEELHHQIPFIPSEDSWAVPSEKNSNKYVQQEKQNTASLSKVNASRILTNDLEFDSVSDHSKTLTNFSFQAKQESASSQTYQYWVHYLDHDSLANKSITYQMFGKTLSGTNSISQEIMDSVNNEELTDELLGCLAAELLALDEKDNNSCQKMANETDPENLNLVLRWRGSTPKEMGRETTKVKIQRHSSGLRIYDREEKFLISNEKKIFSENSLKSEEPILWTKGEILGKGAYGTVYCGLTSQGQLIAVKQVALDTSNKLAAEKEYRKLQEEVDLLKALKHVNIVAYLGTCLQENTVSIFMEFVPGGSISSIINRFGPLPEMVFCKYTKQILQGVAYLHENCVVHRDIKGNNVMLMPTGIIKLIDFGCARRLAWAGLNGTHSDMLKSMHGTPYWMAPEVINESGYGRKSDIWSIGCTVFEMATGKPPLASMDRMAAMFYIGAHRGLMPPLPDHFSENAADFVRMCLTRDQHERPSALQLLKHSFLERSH
Method: as §1

GCK = molecular target: T2, GCK (Homo sapiens, UniProt Q12851); test: Kinase panel biochemical assay, GCK; settings: single concentration of 1 μM, read-out: percent inhibition of kinase
T2 sequence (Q12851 1-820): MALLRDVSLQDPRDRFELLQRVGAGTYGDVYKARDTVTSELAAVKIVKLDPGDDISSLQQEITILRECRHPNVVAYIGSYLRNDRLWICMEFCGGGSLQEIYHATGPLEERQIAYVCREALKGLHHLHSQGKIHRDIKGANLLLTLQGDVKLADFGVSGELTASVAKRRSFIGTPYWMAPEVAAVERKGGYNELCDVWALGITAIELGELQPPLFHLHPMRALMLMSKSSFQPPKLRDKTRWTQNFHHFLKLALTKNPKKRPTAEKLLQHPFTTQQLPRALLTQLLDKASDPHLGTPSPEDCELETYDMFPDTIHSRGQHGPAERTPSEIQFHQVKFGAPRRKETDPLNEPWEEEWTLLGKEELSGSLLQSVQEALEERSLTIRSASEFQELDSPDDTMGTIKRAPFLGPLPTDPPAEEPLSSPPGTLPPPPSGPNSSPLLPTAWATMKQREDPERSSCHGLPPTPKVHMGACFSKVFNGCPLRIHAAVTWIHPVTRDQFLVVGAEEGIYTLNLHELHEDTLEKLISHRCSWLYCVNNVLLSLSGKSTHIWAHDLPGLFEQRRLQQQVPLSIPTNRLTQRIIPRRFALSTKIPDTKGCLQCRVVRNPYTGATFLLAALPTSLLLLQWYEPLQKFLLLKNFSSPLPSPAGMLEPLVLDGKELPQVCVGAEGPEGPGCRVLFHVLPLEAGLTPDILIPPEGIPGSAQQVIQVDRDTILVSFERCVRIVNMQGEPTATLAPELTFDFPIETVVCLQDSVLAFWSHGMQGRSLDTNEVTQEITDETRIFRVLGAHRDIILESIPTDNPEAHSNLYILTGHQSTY
Method: as §1

c-Src = c-Src (Homo sapiens, UniProt P12931); test: Kinase panel biochemical assay, c-Src; settings: single concentration of 1 μM, read-out: percent inhibition of kinase
Method: as §1

YES = YES (Homo sapiens, UniProt P07947); test: Kinase panel biochemical assay, YES; settings: single concentration of 1 μM, read-out: percent inhibition of kinase
Method: as §1

FYN = FYN (Homo sapiens, UniProt P06241); test: Kinase panel biochemical assay, FYN; settings: single concentration of 1 μM, read-out: percent inhibition of kinase
Method: as §1

ABL1 = ABL1 (Homo sapiens, UniProt P00519); test: Kinase panel biochemical assay, ABL1; settings: single concentration of 1 μM, read-out: percent inhibition of kinase
Method: as §1

PEAK1 = PEAK1 (Homo sapiens, UniProt Q9H792); test: Kinase panel biochemical assay, PEAK1; settings: single concentration of 1 μM, read-out: percent inhibition of kinase
Method: as §1

LCK = LCK (Homo sapiens, UniProt P06239); test: Kinase panel biochemical assay, LCK; settings: single concentration of 1 μM, read-out: percent inhibition of kinase
Method: as §1

Sequence of FGFR1 (P11362 22-822): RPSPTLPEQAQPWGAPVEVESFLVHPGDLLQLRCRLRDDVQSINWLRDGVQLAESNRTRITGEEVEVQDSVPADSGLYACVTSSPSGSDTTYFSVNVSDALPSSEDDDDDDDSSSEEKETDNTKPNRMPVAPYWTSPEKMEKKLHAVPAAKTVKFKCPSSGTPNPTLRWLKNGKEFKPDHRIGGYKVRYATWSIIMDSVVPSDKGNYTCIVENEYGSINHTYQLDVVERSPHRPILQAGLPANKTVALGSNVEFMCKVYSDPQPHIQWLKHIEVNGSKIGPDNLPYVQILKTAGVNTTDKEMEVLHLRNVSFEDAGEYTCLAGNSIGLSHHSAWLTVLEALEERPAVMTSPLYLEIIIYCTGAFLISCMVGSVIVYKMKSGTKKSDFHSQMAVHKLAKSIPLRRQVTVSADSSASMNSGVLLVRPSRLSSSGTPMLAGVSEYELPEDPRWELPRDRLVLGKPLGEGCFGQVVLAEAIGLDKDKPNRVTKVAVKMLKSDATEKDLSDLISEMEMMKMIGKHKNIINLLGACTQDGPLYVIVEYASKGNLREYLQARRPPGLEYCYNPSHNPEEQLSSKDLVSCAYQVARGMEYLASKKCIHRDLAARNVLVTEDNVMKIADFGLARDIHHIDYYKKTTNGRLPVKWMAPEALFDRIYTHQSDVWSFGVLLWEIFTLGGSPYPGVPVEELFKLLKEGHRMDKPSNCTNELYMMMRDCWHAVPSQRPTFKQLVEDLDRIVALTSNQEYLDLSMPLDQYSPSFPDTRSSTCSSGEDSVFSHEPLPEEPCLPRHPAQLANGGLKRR

SMILES: Cc1ccc(NC(=O)c2cccc(C(F)(F)F)c2)cc1-c1cc2cnc(N)nc2c(=O)[nH]1 [Compound No. 55, N-(3-(2-amino-8-oxo-7,8-dihydropyrido[3,4-d]pyrimidin-6-yl)-4-methylphenyl)-3-(trifluoromethyl)benzamide]
- inhibition at 1 µM (FGFR1): ≥ 70%
- inhibition at 1 µM (JAK1): ≥ 70%
- GI50 (Ba/F3 (N-Ras G12D)): < 0.5 µM
- inhibition at 1 µM (ZAK): ≥ 70%
- inhibition at 1 µM (EPHB3): ≥ 70%
- inhibition at 1 µM (TXK): ≥ 70%
- IC50 (ACK1 [1]): 100 to 1000 nM
- inhibition at 1 µM (FLT1): ≥ 70%
- inhibition at 1 µM (EPHB1): ≥ 70%
- inhibition at 1 µM (FRK): ≥ 70%
- inhibition at 1 µM (p38a): ≥ 70%
- inhibition at 1 µM (FGFR2): ≥ 70%
- inhibition at 1 µM (RET): ≥ 70%
- inhibition at 1 µM (EPHA1): ≥ 70%
- GI50 (OCI-AML3 (N-Ras Q61L)): < 0.5 µM
- inhibition at 1 µM (RIPK3): ≥ 70%
- inhibition at 1 µM (EPHB4): ≥ 70%
- inhibition at 1 µM (EPHA2): ≥ 70%
- inhibition at 1 µM (EPHA7): ≥ 70%
- inhibition at 1 µM (ACK1 [2]): ≥ 70%
- inhibition at 1 µM (YSK4): ≥ 70%
- inhibition at 1 µM (GCK): ≥ 70%
- inhibition at 1 µM (c-Src): ≥ 70%
- inhibition at 1 µM (YES): ≥ 70%
- inhibition at 1 µM (FYN): ≥ 70%
- inhibition at 1 µM (ABL1): ≥ 70%
- inhibition at 1 µM (PEAK1): ≥ 70%
- inhibition at 1 µM (LCK): ≥ 70%
